The target in this assay is T1, Enkephalinase (Rattus norvegicus, UniProt P07861).
T1 construct: Enkephalinase is partially purified from rat kidney; from tissue; host or cells: rat kidney (microvilli fraction)
T1 sequence (P07861 1-750): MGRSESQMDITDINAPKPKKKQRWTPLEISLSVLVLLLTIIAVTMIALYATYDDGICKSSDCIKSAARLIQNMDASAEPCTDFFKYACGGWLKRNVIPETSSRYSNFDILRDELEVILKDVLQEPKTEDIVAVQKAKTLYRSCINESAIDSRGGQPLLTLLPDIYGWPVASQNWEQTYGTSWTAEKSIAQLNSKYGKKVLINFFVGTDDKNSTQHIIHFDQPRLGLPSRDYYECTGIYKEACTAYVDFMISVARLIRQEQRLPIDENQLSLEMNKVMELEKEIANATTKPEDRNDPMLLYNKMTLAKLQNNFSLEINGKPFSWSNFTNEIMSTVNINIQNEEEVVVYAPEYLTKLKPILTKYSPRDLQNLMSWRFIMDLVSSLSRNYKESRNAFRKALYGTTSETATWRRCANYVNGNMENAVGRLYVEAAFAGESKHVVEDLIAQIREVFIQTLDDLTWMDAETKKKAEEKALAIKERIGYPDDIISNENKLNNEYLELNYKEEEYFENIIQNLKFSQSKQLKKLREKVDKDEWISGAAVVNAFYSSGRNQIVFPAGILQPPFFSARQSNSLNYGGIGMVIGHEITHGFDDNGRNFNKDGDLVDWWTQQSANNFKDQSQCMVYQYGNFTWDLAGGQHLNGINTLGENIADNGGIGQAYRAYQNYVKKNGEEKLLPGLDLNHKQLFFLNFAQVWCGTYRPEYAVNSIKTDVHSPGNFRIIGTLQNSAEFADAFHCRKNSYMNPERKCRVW
The experiment in a line: Enkephalinase inhibition (fluorometric assay, enzyme partially purified from rat kidney). The class given is biochemical. To be noted: 50 mM HEPES pH 7.4, 25° C., 12 μM dansyl-D-AlaGly(p-nitro)PheGly. An excerpt: Enkephalinase is partially purified from rat kidney. The enzyme is extracted from the microvilli fraction by using Triton X-100 according to the method of Malfroy and Schwartz [J. Biol. Chem. 259, 14365-14370 (1984)]or by using a proteolytic treatment according to the method of Almenoff and Orlowski [Biochem. 22, 590-599 (1983)]. The enzyme is further purified by anion exchange chromatography (Mono Q™ column, Pharmacia) using a Pharmacia FPLC system. The enzyme activity may be measured by the fluorometric methods of Florentin et al. [Anal. Biochem. 141, 62-69 (1984)]or of Almenoff and Orlowski [J. Neurochemistry 42, 151-157 (1984)]. The enzyme is assayed in 50 mM HEPES buffer (pH 7.4) in a 3.0 mL reaction volume containing 12 μM of the substrate dansyl-D-AlaGly(p-nitro)PheGly(Km =40 μM) at 25° C. The substrate (and inhibitor) is added from a concentrated stock solution in DMSO (up to 0.1 mL DMSO final volume). The enzyme in a small volume (approximately 0.1 μg of FPLC purified protein) is added to initiate the reaction and the rate of fluorecense increase is recorded continuously using a fluorometer (excitation at 339 nm, emission at 562 nm).

For orientation: Ki means the dissociation constant of the complex between target and ligand, obtained from inhibition or displacement. The low end stands for a stronger hold on the target, the high end for a looser hold on the target. Take `O=C(O)CC(Cc1ccccc1)C(=O)N[C@H]1Cc2ccccc2[C@H]2CCC[C@@H](C(=O)O)N2C1=O` (stereo partly drawn) [101,287, [4S-[4α, 7α(R*), 12bβ]]-7-[(1-Oxo-2-carboxymethyl-3-phenylpropyl)amino]-1,2,3,4,6,7,8,12b-octahydro-6-oxopyrido[2,1-a][2]benzazepine-4-carboxylic acid]: the affinity corresponds to a Ki of 5 nM.
